# Measurements reported in paper PMC7872424, “Mining Natural Products for Macrocycles to Drug Difficult Targets” (Journal of Medicinal Chemistry, 2020).
# Columns and labels:
# Caco-2 cell monolayers = experiment: Efflux-inhibited permeability across Caco-2 cell monolayers; format: in vitro ADME
# DNA gyrase B = tested on: DNA gyrase B; parameters: method as in earlier work; conditions: Table S4, ref Brvar, M., et al., Bioorg. Med. Chem. Lett. 2010, 20, 3, 958–962 & Boehm, H. J., J. Med. Chem. 2000, 43, 14, 2664-2674; cited from earlier work
# DAUDI cell line = tested on: DAUDI cell line; parameters: method as in Cribiu, R., et al., Angew. Chem. Int. Ed. 2009, 48, 8780–8783; conditions: Table S4; ref Cribiu, R., et al., Angew. Chem. Int. Ed. 2009, 48, 8780–8783; cited from earlier work
# HL-60 cell line = tested on: HL-60 cell line; parameters: method as in Cribiu, R., et al., Angew. Chem. Int. Ed. 2009, 48, 8780–8783; conditions: Table S4; ref Cribiu, R., et al., Angew. Chem. Int. Ed. 2009, 48, 8780–8783; cited from earlier work
# [1] = tested on: Trichophyton mentagrophytes 833; parameters: method as in Tamai, S., et al., J. Antibiot., 1982, 35, 1130-1136; conditions: Table S4; ref Tamai, S., et al., J. Antibiot., 1982, 35, 1130-1136; cited from earlier work
# [2] = tested on: Trichophyton asteroides 429; parameters: method as in Tamai, S., et al., J. Antibiot., 1982, 35, 1130-1136; conditions: Table S4; ref Tamai, S., et al., J. Antibiot., 1982, 35, 1130-1136; cited from earlier work
compound,measurement,setting,value
"CC(=O)N1CCC[C@H]1C(=O)N[C@@H]1COC(=O)c2ccccc2CSC[C@H](C(=O)N(C)C)NC1=O [Compound 14, (4S,7R)-7-((S)-1-Acetylpyrrolidine-2-carboxamido)-N,N-dimethyl-6,10-dioxo-1,3,4,5,6,7,8,10-octahydrobenzo[j][1]oxa[8]thia[5]azacyclododecine-4-carboxamide]",permeability across Caco-2 cell monolayers (in words),Caco-2 cell monolayers,low-to-moderate
Cc1c(O)cc(O)c2c1C(=O)OCC(NC(=O)C1C(O)CCN1C(=O)C(N)CO)C(=O)NC(C(=O)NC(C)C(=O)O)CSC2 (stereo not drawn) [Cyclothialidine],DNA gyrase B ATPase activity,DNA gyrase B,Inhibition
CC=CCC=CC(C)CC(O)C1CC2OC2C=CC(O)C(O)C=CCC(C)CC(=O)O1 (stereo not drawn) [Iriomoteolide 3a],Antiproliferative activity vs DAUDI cell line,DAUDI cell line,Antiproliferative activity
same,Antiproliferative activity vs HL-60 cell line,HL-60 cell line,Antiproliferative activity
Oc1ccc2cc1Oc1ccc(cc1)CC1CNC(CN1)C2 (stereo not drawn) [Piperazinomycin],Inhibition of Trichophyton mentagrophytes 833,[1],Inhibition
same,Inhibition of Trichophyton asteroides 429,[2],Inhibition
